According to US10351589B2, “3α-ethynyl, 3β-hydroxy-5α-pregnan-20-oxime for use in the treatment of CNS disorders” (Umecrine Cognition AB, priority 2015, dated 2019):

Columns and labels:
Assay type in all cases: cell-based
α5β3γ2L GABAA receptor [1] = target: T1, α5β3γ2L GABAA receptor (Homo sapiens, UniProt P18507+P28472+P31644); experiment: Example 3: comparative patch clamp test of compound and epimer, change in chloride flow through α5β3γ2L GABAA receptor; conditions: for action on the GABA receptor subunit alpha 5: summary of Table 4
T1 construct: expressed in transfected cells; host or cells: HEK-293 (permanently transfected)
T1 sequence (P31644 32-462): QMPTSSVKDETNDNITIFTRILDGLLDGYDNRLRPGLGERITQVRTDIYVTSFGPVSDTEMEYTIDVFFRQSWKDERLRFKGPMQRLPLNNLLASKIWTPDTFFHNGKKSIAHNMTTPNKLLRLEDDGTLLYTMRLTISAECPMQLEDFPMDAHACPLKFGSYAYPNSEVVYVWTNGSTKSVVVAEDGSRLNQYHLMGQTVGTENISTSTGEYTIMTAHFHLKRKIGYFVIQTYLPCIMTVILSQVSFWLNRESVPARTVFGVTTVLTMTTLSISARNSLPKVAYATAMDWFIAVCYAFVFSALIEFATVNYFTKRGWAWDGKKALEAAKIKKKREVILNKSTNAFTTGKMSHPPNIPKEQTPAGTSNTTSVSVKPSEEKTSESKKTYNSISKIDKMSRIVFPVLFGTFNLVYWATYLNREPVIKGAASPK
T1 sequence (P28472 26-473): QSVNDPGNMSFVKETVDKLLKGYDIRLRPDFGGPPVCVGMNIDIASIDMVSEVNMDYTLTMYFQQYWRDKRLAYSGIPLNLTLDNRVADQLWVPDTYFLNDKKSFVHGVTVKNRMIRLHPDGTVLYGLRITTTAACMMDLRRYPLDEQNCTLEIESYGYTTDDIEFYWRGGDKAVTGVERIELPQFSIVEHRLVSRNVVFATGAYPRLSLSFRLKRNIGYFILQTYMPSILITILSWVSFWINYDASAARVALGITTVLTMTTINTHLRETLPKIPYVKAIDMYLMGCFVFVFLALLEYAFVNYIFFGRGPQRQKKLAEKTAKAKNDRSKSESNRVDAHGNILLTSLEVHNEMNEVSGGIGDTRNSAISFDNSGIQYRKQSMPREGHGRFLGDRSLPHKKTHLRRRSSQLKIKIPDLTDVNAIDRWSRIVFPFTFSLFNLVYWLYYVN
T1 sequence (P18507 40-475): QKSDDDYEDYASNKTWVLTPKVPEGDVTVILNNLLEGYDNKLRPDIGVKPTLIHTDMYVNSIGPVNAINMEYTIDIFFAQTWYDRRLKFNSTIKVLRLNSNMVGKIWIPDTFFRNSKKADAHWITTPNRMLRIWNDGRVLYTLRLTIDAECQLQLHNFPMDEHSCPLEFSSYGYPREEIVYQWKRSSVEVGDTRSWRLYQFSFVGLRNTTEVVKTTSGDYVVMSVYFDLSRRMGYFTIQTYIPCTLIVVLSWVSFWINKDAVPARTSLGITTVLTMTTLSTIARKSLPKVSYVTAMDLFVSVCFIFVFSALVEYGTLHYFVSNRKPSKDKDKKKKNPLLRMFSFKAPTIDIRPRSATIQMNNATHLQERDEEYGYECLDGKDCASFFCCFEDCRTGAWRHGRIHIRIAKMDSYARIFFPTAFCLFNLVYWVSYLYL
From the text: (§1) HEK-293 cells, permanently transfected with the human α1β2γ2 GABAA and α5β3γ2 GABAA receptor expressing functional α1β2γ2L and α5β3γ2L GABAA receptors were used. The cell lines permanently expressing a functional human GABAA receptor was made in following steps. The GABAA receptor subunits α1(308-1727 NM_000806), β2 (214-1679 NM_000813), and γ2L (290-1785 NM_198904) including introduced Kozac sequences just before the start codons were subcloned into mammalian expression vectors containing Geneticin, Hygromycin B, and Zeocin resistance, respectively. A HEK-293 cell line stably expressing the three GABAA receptor subunits was produced by transfection of the subunits one at a time. The transfection was followed by selection with the appropriate antibiotics, cell separation with the use of subunit specific antibodies (β2 and γ2), and production of single cell colonies. Produced cell lines were analysed with immunocytochemistry for the three GABAA receptor subunits, followed by selection of a suitable cell line showing for the GABAA receptor normal and good reactivity in a patch-clamp analysis (see below) towards GABA and the GAMS tetrahydrodeoxycorticosterone (THDOC).
(§2) Experiments were carried out to investigate the effect of 3α-ethynyl, 3β-hydroxy, 5α-pregnan-20-oxime on the GABAA receptor function in absence and in presence of the GAMS Tetrahydrodeoxycorticosterone (THDOC) by the Dynaflow™ system on HEK-293 cells. In these tests the protocol was optimized to be similar to the physiological conditions in the synaptic cleft.
(§3) Cell culture: HEK-293 cells, permanently transfected with human α1β2γ2 GABAA and α5β3γ2 GABAA receptor subtypes, were seeded at a density of 3×10^4/25 cm^2 in cellbind culture flask. The transfected cells were used for patch-clamp experiments 3 days after seeding. When using the cells for patch-clamp experiments the cells were washed twice with O2 bubbled EC-solution (see below). About 5 mL EC was then added and the cells were kept in the incubator for about 15 minutes. After 15 minutes the cells come loose from the bottom of the flask and were separated by carefully sucking couple of times with a Pasteur pipette.
(§4) Dynaflow™ system: Dynaflow™ system with resolve chips was used for all patch-clamp experiments. The resolve chips is made of non-sticky materials. The channel width is 150 μm and the height 50 μm. The well volume is 280 μL. Run time at the flow rate of […]. is […]. The pump settings were as follow: Omnifix 2 mL syringe with inner diameter of 9.65 mm was used. The syringe pump flow rate of chip was 26 μL/min.
Electrophysiology: Patch electrodes were pulled from 1.5 mm O.D., 0.86 mm I.D. borosilicate capillary glass without filament. […] The intracellular solution consisted of (in mM): 140 Cs-gluconate, 3.0 NaCl, 1.2 MgCl2, 1.0 EGTA, 10 HEPES. pH was adjusted to 7.2 with CsOH. The extracellular (EC) solution used during recordings contained (in mM): 137 NaCl, 5.0 KCl, 1.0 CaCl2, 1.2 MgCl2, 10 HEPES, 10 glucose. pH was adjusted with NaOH to 7.4. After compensating for the liquid junction potential a steady holding potential of −17 mV was used in all experiments. In physiological conditions the HEK-293 has a resting potential at −40 mV and a low concentration of chloride ions inside the cell. By using the holding potential of −17 mV and the intracellular solution with low chloride ion concentration the chloride ions flux into the cell when the receptors are activated. All experiments were performed at room temperature (21 to 23° C.). A standard protocol was used for all experiments.
GABA applications: By using the Dynaflow equipment it is possible to study transfected HEK-293 during almost physiological conditions. The Dynaflow system allows application of solutions for as short as 40 ms up to minutes in time. Physiologically, in the synaptic cleft, GABA is released in mM range for about 2 ms this is valid for alpha1 receptors. […]

α5β3γ2L GABAA receptor [2] = target: T1, α5β3γ2L GABAA receptor; experiment: Patch clamp (Dynaflow) current response mediated by chloride ion flux, α5β3γ2L GABAA receptor in HEK-293 cells; conditions: for Relative effect Mean (%) / Relative effect Median: 200 nM THDOC + 0.3 μM GABA, control set to 0
From the text: as §1, §2, §3, §4
(§5) Steroids and GABA: GABA was dissolved in EC-solution by ultrasound for about 40 minutes to the concentration of 10 mM in room temperature. All steroids were dissolved to the concentration of 6 mM in ethanol. The ethanol concentration was 0.1% in all end-solutions, including the wash solution (EC) and the solution with GABA alone. End-solutions are the solutions added into the wells of the chip.
(§6) Electrophysiology: Patch electrodes were pulled from 1.5 mm O.D., 0.86 mm I.D. borosilicate capillary glass without filament. […] The intracellular solution consisted of (in mM): 140 Cs-gluconate, 3.0 NaCl, 1.2 MgCl2, 1.0 EGTA, 10 HEPES. pH was adjusted to 7.2 with CsOH. The extracellular (EC) solution used during recordings contained (in mM): 137 NaCl, 5.0 KCl, 1.0 CaCl2, 1.2 MgCl2, 10 HEPES, 10 glucose. pH was adjusted with NaOH to 7.4. After compensating for the liquid junction potential a steady holding potential of −17 mV was used in all experiments. In physiological conditions the HEK-293 has a resting potential at −40 mV and a low concentration of chloride ions inside the cell. By using the holding potential of −17 mV and the intracellular solution with low chloride ion concentration the chloride ions flux into the cell when the receptors are activated. All experiments were performed at room temperature (21 to 23° C.). A standard protocol was used for all experiments. […]

[3] = target: T2, human α1β2γ2L GABAA receptor (Homo sapiens, UniProt P14867+P18507+P47870); experiment: Patch clamp (Dynaflow) current response mediated by chloride ion flux, α1β2γ2L GABAA receptor in HEK-293 cells
T2 construct: expressed in transfected cells
T2 sequence (P14867 28-456): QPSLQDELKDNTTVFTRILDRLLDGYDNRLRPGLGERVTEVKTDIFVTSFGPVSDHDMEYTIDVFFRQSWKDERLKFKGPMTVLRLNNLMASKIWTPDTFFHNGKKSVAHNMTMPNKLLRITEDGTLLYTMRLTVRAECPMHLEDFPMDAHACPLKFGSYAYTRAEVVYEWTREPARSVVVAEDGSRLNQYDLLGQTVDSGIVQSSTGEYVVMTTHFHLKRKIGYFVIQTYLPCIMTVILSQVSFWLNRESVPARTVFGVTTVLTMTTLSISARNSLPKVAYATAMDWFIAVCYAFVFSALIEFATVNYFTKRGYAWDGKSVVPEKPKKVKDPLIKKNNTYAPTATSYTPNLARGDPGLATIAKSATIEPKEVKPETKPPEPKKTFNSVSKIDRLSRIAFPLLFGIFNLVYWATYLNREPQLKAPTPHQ
T2 sequence (P47870 26-474 isoform P47870-1 limits assumed): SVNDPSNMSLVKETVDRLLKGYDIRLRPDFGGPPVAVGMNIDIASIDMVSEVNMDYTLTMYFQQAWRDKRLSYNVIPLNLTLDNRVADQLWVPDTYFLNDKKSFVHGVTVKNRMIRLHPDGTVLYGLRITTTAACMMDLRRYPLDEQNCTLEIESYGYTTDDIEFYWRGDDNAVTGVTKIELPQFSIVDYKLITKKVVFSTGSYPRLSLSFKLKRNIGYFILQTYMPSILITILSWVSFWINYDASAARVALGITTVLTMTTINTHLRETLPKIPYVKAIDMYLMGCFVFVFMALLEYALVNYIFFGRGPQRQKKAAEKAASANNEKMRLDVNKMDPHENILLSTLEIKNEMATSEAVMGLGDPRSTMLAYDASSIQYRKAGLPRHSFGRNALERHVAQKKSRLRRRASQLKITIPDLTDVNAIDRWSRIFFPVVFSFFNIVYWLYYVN
T2 sequence (P18507 40-475): as the sequence (P18507 40-475) above
From the text: as §1, §2, §3, §4, §5, §6

## C#C[C@@]1(O)CC[C@@]2(C)[C@@H](CC[C@@H]3[C@@H]2CC[C@]2(C)[C@@H](C(C)=NO)CC[C@@H]32)C1 [Comparator, 3β-ethynyl, 3α-hydroxy, 5α-pregnan-20-oxime]
α5β3γ2L GABAA receptor [1]; 1 μM steroid, α5β3γ2L
  Mean % (SEM) Compound + GABA, change in chloride flow: +210 (23) %
  Mean % (SEM) Compound + THDOC + GABA, change in chloride flow: +80 (8) %
  Mean % (SEM) Compound + THDOC, change in chloride flow: +128 (22) %
  Mean % (SEM) Compound alone, change in chloride flow: +50 (12) %
  mode of action, Compound + GABA: agonist
  mode of action, Compound + THDOC: agonist
  mode of action, Compound + THDOC + GABA: agonist
  mode of action, Compound alone: agonist
α5β3γ2L GABAA receptor [1]
  action on the GABA receptor subunit alpha 5: agonist

## C#C[C@]1(O)CC[C@@]2(C)C(CCC3C2CC[C@@]2(C)C3CC[C@@H]2/C(C)=N/O)C1 (stereo partly drawn) [Compound, 3α-ethynyl, 3β-hydroxy, 5α-pregnan-20-oxime]
α5β3γ2L GABAA receptor [1]; 1 μM steroid, α5β3γ2L
  Mean % (SEM) Compound + GABA, change in chloride flow: −19 (2) %
  Mean % (SEM) Compound + THDOC + GABA, change in chloride flow: −15 (3) %
  Mean % (SEM) Compound + THDOC, change in chloride flow: −30 (6) %
  Mean % (SEM) Compound alone, change in chloride flow: no effect
  mode of action, Compound + GABA: antagonist
  mode of action, Compound + THDOC: antagonist
  mode of action, Compound + THDOC + GABA: antagonist
α5β3γ2L GABAA receptor [1]
  action on the GABA receptor subunit alpha 5: antagonist
α5β3γ2L GABAA receptor [2]; 0.1 μM compound
  Relative effect Mean (%): −3.0%
  Relative effect Median: −1.6
α5β3γ2L GABAA receptor [2]; 200 nM THDOC, no GABA
  effect on 200 nM THDOC evoked current (direct activation by GAMS): antagonizing effect
α5β3γ2L GABAA receptor [2]; 0.3 μM compound
  Relative effect Mean (%): −6.6%
  Relative effect Median: −6.9
α5β3γ2L GABAA receptor [2]; 1 μM compound
  Relative effect Mean (%): −15.2%
  Relative effect Median: −11.0
α5β3γ2L GABAA receptor [2]; 3 μM compound
  Relative effect Mean (%): −20.7%
  Relative effect Median: −23.6
α5β3γ2L GABAA receptor [2]; 0.1-3 μM compound
  effect on 200 nM GAMS (THDOC) and 0.3 μM GABA evoked currents: clear concentration dependent antagonizing effect
α5β3γ2L GABAA receptor [2]; all tested situations with GAMS and GABA
  action on α5β3γ2L receptor subtype: antagonist
α5β3γ2L GABAA receptor [2]; α5β3γ2
  Compound + GABA, current response: −18.8 ± 2.2
α5β3γ2L GABAA receptor [2]; α5β3γ2, GAMS = THDOC
  Compound + GAMS + GABA, current response: −15.2 ± 2.8
α5β3γ2L GABAA receptor [2]; α5β3γ2, GAMS = THDOC, no GABA
  Compound + GAMS, current response: −29.7 ± 6.5
α5β3γ2L GABAA receptor [2]; α5β3γ2, no GABA, no GAMS
  Compound alone, current response: No effect
[3]; 1 μM compound
  direct activation of the GABAA receptor in absence of GABA: did not activate
[3]; 1 μM compound, α1β2γ2L
  increase of GABA mediated current response: approximately 10%
[3]; compound + GABA
  effect on GABA's opening of the α1β2γ2L GABAA receptor: slight agonistic effect
[3]; compound alone
  effect of compound alone on chloride flux: no enhancing or antagonizing effect
[3]; α1β2γ2L
  Compound + GABA, current response: +11 ± 4
[3]; α1β2γ2L receptor
  antagonistic effect against the enhancing effect of THDOC: no antagonistic effect
[3]; α1β2γ2L, GAMS = THDOC
  Compound + GAMS + GABA, current response: No effect
[3]; α1β2γ2L, no GABA, no GAMS
  Compound alone, current response: No effect
